Measurements: ChEMBL document CHEMBL4411307, “N,N'-diaryl-bishydrazones in a biphenyl platform: Broad spectrum antifungal agents” (Eur J Med Chem, 2019)
In brackets after ≈: the same amount, converted by molar mass. Activity calls are given as the source filed them. No cut-off for these calls is given here.

Key:
[1] = Hemolytic activity in mouse RBC at 7.8 ug/ml after 1 hr relative to control; type: ADME, cell-based, Erythrocyte; conditions: red blood cells (erythrocytes), read-out: Activity
[2] = Selectivity index, ratio of compound concentration showing <20 to <25% hemolysis in mouse RBC to MIC for fluconazole/ITC-resistant Candida albicans ATCC 10231; type: toxicity; conditions: red blood cells (erythrocytes), read-out: Selectivity Index
[3] = tested on: Candida albicans; test: Antifungal activity against fluconazole/ITC-resistant Candida albicans ATCC MYA-1237 measured after 48 hrs by CLSI M27-A3 protocol based method; type: functional; conditions: ATCC MYA-1237, 48 h
[4] = Selectivity index, ratio of compound concentration showing <20 to <25% hemolysis in mouse RBC to MIC for fluconazole/ITC-resistant Candida albicans ATCC MYA-1003; type: toxicity; conditions: red blood cells (erythrocytes), read-out: Selectivity Index
[5] = Selectivity index, ratio of CC50 for human A549 cells to MIC for Aspergillus nidulans ATCC 38163; type: toxicity; conditions: read-out: Selectivity Index
[6] = tested on: Aspergillus flavus; test: Antifungal activity against Aspergillus flavus ATCC MYA-3631 measured after 48 hrs by CLSI M38-A2 protocol based method; type: functional; conditions: ATCC MYA-3631, 48 h
[7] = Selectivity index, ratio of compound concentration showing <20 to <25% hemolysis in mouse RBC to MIC for fluconazole/ITC-resistant Candida albicans ATCC 64124; type: toxicity; conditions: red blood cells (erythrocytes), read-out: Selectivity Index
[8] = Selectivity index, ratio of compound concentration showing <20 to <25% hemolysis in mouse RBC to MIC for fluconazole/ITC-susceptible Candida albicans ATCC MYA-2876; type: toxicity; conditions: red blood cells (erythrocytes), read-out: Selectivity Index
[9] = Selectivity index, ratio of CC50 for human A549 cells to MIC for fluconazole/ITC-resistant Candida albicans ATCC MYA-1003; type: toxicity; conditions: read-out: Selectivity Index
[10] = Selectivity index, ratio of compound concentration showing <20 to <25% hemolysis in mouse RBC to MIC for Candida krusei ATCC 6258; type: toxicity; conditions: red blood cells (erythrocytes), read-out: Selectivity Index
[11] = tested on: Candida albicans; test: Antifungal activity against fluconazole/ITC-resistant Candida albicans ATCC 64124 measured after 48 hrs by CLSI M27-A3 protocol based method; type: functional; conditions: ATCC 64124, 48 h
[12] = tested on: BEAS-2B; test: Cytotoxicity against human BEAS2B cells after 24 hrs by resazurin based assay; type: cell-based
[13] = tested on: Candida albicans; test: Antifungal activity against fluconazole/ITC-susceptible Candida albicans ATCC MYA-2310 measured after 48 hrs by CLSI M27-A3 protocol based method; type: functional; conditions: ATCC MYA-2310, 48 h
[14] = tested on: Candida parapsilosis; test: Antifungal activity against Candida parapsilosis ATCC 22019 measured after 48 hrs by CLSI M27-A3 protocol based method; type: functional; conditions: Lodderomyces parapsilosis, ATCC 22019, 48 h
[15] = Selectivity index, ratio of CC50 for human A549 cells to MIC for fluconazole/ITC-resistant Candida albicans ATCC 10231; type: toxicity; conditions: read-out: Selectivity Index
[16] = Selectivity index, ratio of compound concentration showing <20 to <25% hemolysis in mouse RBC to MIC for fluconazole/ITC-resistant Candida albicans ATCC MYA-1237; type: toxicity; conditions: red blood cells (erythrocytes), read-out: Selectivity Index
[17] = Hemolytic activity in mouse RBC at 31.3 ug/ml after 1 hr relative to control; type: ADME, cell-based, Erythrocyte; conditions: red blood cells (erythrocytes), read-out: Activity
[18] = Hemolytic activity in mouse RBC at […] after 1 hr relative to control; type: ADME, cell-based, Erythrocyte; conditions: red blood cells (erythrocytes), read-out: Activity; note: tested at 0.48 µg/mL
[19] = Selectivity index, ratio of CC50 for human A549 cells to MIC for Aspergillus flavus ATCC MYA-3631; type: toxicity; conditions: read-out: Selectivity Index
[20] = tested on: Candida albicans; test: Antifungal activity against fluconazole/ITC-susceptible Candida albicans ATCC MYA-2876 measured after 48 hrs by CLSI M27-A3 protocol based method; type: functional; conditions: ATCC MYA-2876, 48 h
[21] = Selectivity index, ratio of compound concentration showing <20 to <25% hemolysis in mouse RBC to MIC for fluconazole/ITC-resistant Candida albicans ATCC 90819; type: toxicity; conditions: red blood cells (erythrocytes), read-out: Selectivity Index
[22] = Selectivity index, ratio of compound concentration showing <20 to <25% hemolysis in mouse RBC to MIC for Aspergillus flavus ATCC MYA-3631; type: toxicity; conditions: red blood cells (erythrocytes), read-out: Selectivity Index
[23] = tested on: Staphylococcus aureus; test: Antibacterial activity against methicillin-resistant Staphylococcus aureus; type: functional, organism-based
[24] = tested on: Nakaseomyces glabratus; test: Antifungal activity against Candida glabrata ATCC 2001 measured after 48 hrs by CLSI M27-A3 protocol based method; type: functional; conditions: CBS 138, 48 h
[25] = Hemolytic activity in mouse RBC at […] ug/ml after 1 hr relative to control; type: ADME, cell-based, Erythrocyte; conditions: red blood cells (erythrocytes), read-out: Activity
[26] = tested on: Candida albicans; test: Antifungal activity against fluconazole/ITC-resistant Candida albicans ATCC MYA-1003 measured after 48 hrs by CLSI M27-A3 protocol based method; type: functional; conditions: ATCC MYA-1003, 48 h
[27] = tested on: Pichia kudriavzevii; test: Antifungal activity against Candida krusei ATCC 6258 measured after 48 hrs by CLSI M27-A3 protocol based method; type: functional; conditions: ATCC 6258, 48 h
[28] = tested on: A549; test: Cytotoxicity against human A549 cells after 24 hrs by resazurin based assay; type: cell-based; conditions: a549, 24 h
[29] = Selectivity index, ratio of CC50 for human A549 cells to MIC for fluconazole/ITC-susceptible Candida albicans ATCC MYA-2876; type: toxicity; conditions: read-out: Selectivity Index
[30] = Hemolytic activity in mouse RBC at 3.9 ug/ml after 1 hr relative to control; type: ADME, cell-based, Erythrocyte; conditions: red blood cells (erythrocytes), read-out: Activity
[31] = Hemolytic activity in mouse RBC at 62.5 ug/ml after 1 hr relative to control; type: ADME, cell-based, Erythrocyte; conditions: red blood cells (erythrocytes), read-out: Activity
[32] = tested on: Candida albicans; test: Antifungal activity against fluconazole/ITC-resistant Candida albicans ATCC 90819 measured after 48 hrs by CLSI M27-A3 protocol based method; type: functional; conditions: ATCC 90819, 48 h
[33] = Selectivity index, ratio of compound concentration showing <20 to <25% hemolysis in mouse RBC to MIC for Aspergillus terreus ATCC MYA-3633; type: toxicity; conditions: red blood cells (erythrocytes), read-out: Selectivity Index
[34] = tested on: Listeria monocytogenes; test: Antibacterial activity against Listeria monocytogenes; type: functional, organism-based
[35] = Selectivity index, ratio of CC50 for human A549 cells to MIC for fluconazole/ITC-resistant Candida albicans ATCC 90819; type: toxicity; conditions: read-out: Selectivity Index
[36] = tested on: Aspergillus nidulans; test: Antifungal activity against Aspergillus nidulans ATCC 38163 measured after 48 hrs by CLSI M38-A2 protocol based method; type: functional; conditions: ATCC 38163, 48 h
[37] = Selectivity index, ratio of compound concentration showing <20 to <25% hemolysis in mouse RBC to MIC for Candida parapsilosis ATCC 22019; type: toxicity; conditions: red blood cells (erythrocytes), read-out: Selectivity Index
[38] = tested on: Enterococcus; test: Antibacterial activity against vancomycin-resistant Enterococcus; type: functional, organism-based
[39] = Selectivity index, ratio of CC50 for human A549 cells to MIC for fluconazole/ITC-resistant Candida albicans ATCC 64124; type: toxicity; conditions: read-out: Selectivity Index
[40] = Selectivity index, ratio of CC50 for human A549 cells to MIC for Aspergillus terreus ATCC MYA-3633; type: toxicity; conditions: read-out: Selectivity Index
[41] = Selectivity index, ratio of compound concentration showing <20 to <25% hemolysis in mouse RBC to MIC for Candida glabrata ATCC 2001; type: toxicity; conditions: red blood cells (erythrocytes), read-out: Selectivity Index
[42] = Selectivity index, ratio of CC50 for human A549 cells to MIC for Candida krusei ATCC 6258; type: toxicity; conditions: read-out: Selectivity Index
[43] = Hemolytic activity in mouse RBC at 1.95 ug/ml after 1 hr relative to control; type: ADME, cell-based, Erythrocyte; conditions: red blood cells (erythrocytes), read-out: Activity
[44] = Selectivity index, ratio of CC50 for human A549 cells to MIC for Candida glabrata ATCC 2001; type: toxicity; conditions: read-out: Selectivity Index
[45] = Selectivity index, ratio of CC50 for human A549 cells to MIC for Candida parapsilosis ATCC 22019; type: toxicity; conditions: read-out: Selectivity Index
[46] = Selectivity index, ratio of CC50 for human A549 cells to MIC for fluconazole/ITC-susceptible Candida albicans ATCC MYA-2310; type: toxicity; conditions: read-out: Selectivity Index
[47] = tested on: Aspergillus terreus; test: Antifungal activity against Aspergillus terreus ATCC MYA-3633 measured after 48 hrs by CLSI M38-A2 protocol based method; type: functional; conditions: ATCC MYA-3633, 48 h
[48] = tested on: Candida albicans; test: Antifungal activity against fluconazole/ITC-resistant Candida albicans ATCC 10231 measured after 48 hrs by CLSI M27-A3 protocol based method; type: functional; conditions: ATCC 10231, 48 h
[49] = Selectivity index, ratio of compound concentration showing <20 to <25% hemolysis in mouse RBC to MIC for Aspergillus nidulans ATCC 38163; type: toxicity; conditions: red blood cells (erythrocytes), read-out: Selectivity Index
[50] = Selectivity index, ratio of compound concentration showing <20 to <25% hemolysis in mouse RBC to MIC for fluconazole/ITC-susceptible Candida albicans ATCC MYA-2310; type: toxicity; conditions: red blood cells (erythrocytes), read-out: Selectivity Index
[51] = Selectivity index, ratio of CC50 for human A549 cells to MIC for fluconazole/ITC-resistant Candida albicans ATCC MYA-1237; type: toxicity; conditions: read-out: Selectivity Index

C(=N\Nc1ccccc1)/c1ccc(-c2cccc(/C=N/Nc3ccccc3)c2)cc1
hemolysis at 1 h, 7.8 ug/ml [1]: 8.5%
selectivity ratio [2]: 1 to 32
MIC [3]: 31.3 µg/mL (≈ 80.2 µM)
selectivity ratio [4]: 1 to 32
selectivity ratio [5]: 16
MIC [6]: 3.9 µg/mL (≈ 9.99 µM)
selectivity ratio [7]: 1 to 32
selectivity ratio [8]: 1 to 32
selectivity ratio [9]: 4
selectivity ratio [10]: 1 to 32
MIC [11]: 31.3 µg/mL (≈ 80.2 µM)
CC50 [12]: > 31 µg/mL
MIC [13]: 31.3 µg/mL (≈ 80.2 µM)
MIC [14]: > 31.3 µg/mL
selectivity ratio [15]: 16
selectivity ratio [16]: 1 to 32
hemolysis at 1 h, 31.3 ug/ml [17]: 16.7%
hemolysis at 1 h, […] [18]: 0%
selectivity ratio [19]: 8
MIC [20]: 31.3 µg/mL (≈ 80.2 µM)
selectivity ratio [21]: 1 to 32
selectivity ratio [22]: 1 to 32
Activity [23]: inactive
MIC [24]: > 31.3 µg/mL
hemolysis at 1 h, 15.6 ug/ml ([25]; at 15.6 µg/mL): 14.1%
hemolysis at 1 h, 0.975 ug/ml [25]: 0%
MIC [26]: 3.9 µg/mL (≈ 9.99 µM)
MIC [27]: 7.8 µg/mL (≈ 20 µM)
CC50 [28]: > 31 µg/mL
selectivity ratio [29]: 1
hemolysis at 1 h, 3.9 ug/ml [30]: 1.5%
hemolysis at 1 h, 62.5 ug/ml [31]: 23.6%
MIC [32]: 31.3 µg/mL (≈ 80.2 µM)
selectivity ratio [33]: 1 to 32
Activity [34]: inactive
selectivity ratio [35]: 1
MIC [36]: 1.95 µg/mL (≈ 4.99 µM)
selectivity ratio [37]: 1 to 32
Activity [38]: inactive
selectivity ratio [39]: 1
selectivity ratio [40]: 2
selectivity ratio [41]: 1 to 32
selectivity ratio [42]: 4
hemolysis at 1 h, 1.95 ug/ml [43]: 3.5%
selectivity ratio [44]: 1
selectivity ratio [45]: 1
selectivity ratio [46]: 1
MIC [47]: 15.6 µg/mL (≈ 39.9 µM)
MIC [48]: 1.95 µg/mL (≈ 4.99 µM)
selectivity ratio [49]: 1 to 32
selectivity ratio [50]: 1 to 32
selectivity ratio [51]: 1
